{"source": "patent US20240277813A1", "about": "“TREATMENT OF OBESITY AND OBESITY-RELATED DISORDERS” (ANTAG THERAPEUTICS APS, priority 2021, published 2024)", "key": {"[1]": {"details": "in vivo", "excerpt": "During the treatment period all monkeys received daily SC injections after breakfast with the respective test substance for a total of 42 days. […] All treatment groups and the vehicle group received injection volumes based on individual body weights. After the 42 days of treatment, body weight, food intake, and blood/serum chemistries were monitored for an additional 14-day washout period. Blood collections and dosing occurred in conscious monkeys for the entire study."}, "high-fat mice": {"tested_on": "high-fat mice", "details": "daily intraperitoneal injections, cited from earlier work; for glucose tolerance / glycaemic control: compared with high-fat controls"}, "[2]": {"tested_on": "High fat diet (HFD) induced obese cynomolgus monkeys", "test": "cynomolgus monkey efficacy study, 42 days daily SC treatment", "type": "in vivo, cynomolgus monkeys (Macaca fascicularis)", "description": "Cynomolgus monkeys (Macaca fascicularis) were fed a HFD consisting of 50 g of KBI proprietary standard monkey formula feed in the morning 9:00 to 10:00 AM, 150 g apple in the afternoon 14:00 to 15:00 PM, and 100 g of KBI proprietary HFD in the evening 16:00 to 17:00 PM. Water was provided ad libitum. […] Values represent means±SEM, n=9-10 per group.\nHigh fat diet (HFD) induced obese cynomolgus monkeys (Macaca fascicularis, male, >7.5 kg, fasting glucose<90 mg/dL, fasting insulin<60 μU/mL, >8 years of age) were obtained from KBI's stock colony. Lighting in animal holding rooms was maintained on 12:12 hour light:dark cycle, and the ambient temperature and humidity range was set at 18-29 degrees C. and 30 to 90%, respectively. The monkeys were individually housed in cages arranged to allow visual and auditory contacts with conspecifics. The monkeys were provided with cage toys for environmental enrichment to ensure adequate welfare and psychological well-being.\n8 days prior to the treatment phase, and KBI's proprietary HFD was provided adlibitum which is in contrast to the defined amount of 100 g that the monkeys were normally served. During the entire treatment phase (42 days) and washout period (14 days) monkeys were provided three meals per day consisting of 50 g of KBI proprietary standard monkey formula feed in the morning 9:00-10:00 AM, one regular apple (150 g) in the afternoon 14:00-15:00 PM, and ad libitum of KBI proprietary HFD in the evening 16:00-17:00 PM. Water was provided adlibitum.\nThe cynomolgus monkeys were acclimated/trained to experimental procedures for three weeks followed by one week with continued training and introduction of adlibitum HFD prior to start of treatment. The monkeys were randomly sorted into six separate dose groups with 10 animals each based on acclimation data sets.\nDaily food intake measurements were recorded during the entire duration of the study from the acclimation period until the end of the washout period. After each feeding time, all of the remaining food was withdrawn and intake was determined by weighing the left-over food.\nBody weights were measured every third to fourth day during the study period. The monkeys were non-sedated and were transferred into small transfer cages and transported to a weighing scale. The tare weights of the transfer cages were determined prior to weighing the monkeys inside the transfer cages. The monkeys were weighed twice inside the transfer cages and recordings were made to the nearest 0.1 kg.\nWhole blood sample was collected from a peripheral vein after an overnight fast according to the specified time points and transferred directly into serum separation tubes (SST). Serum was separated by centrifugation at 2500×g for 10 min at 4° C. Insulin, CTX and PTH levels were analyzed using the Cobas e411 Immunology analyzer. Other parameters were analyzed using the Roche C311 or C501 biochemical analyzer."}, "DPP-IV enzyme": {"molecular_target": "DPP-IV enzyme (Homo sapiens, UniProt P27487)", "sequence (P27487 whole entry, species assumed)": "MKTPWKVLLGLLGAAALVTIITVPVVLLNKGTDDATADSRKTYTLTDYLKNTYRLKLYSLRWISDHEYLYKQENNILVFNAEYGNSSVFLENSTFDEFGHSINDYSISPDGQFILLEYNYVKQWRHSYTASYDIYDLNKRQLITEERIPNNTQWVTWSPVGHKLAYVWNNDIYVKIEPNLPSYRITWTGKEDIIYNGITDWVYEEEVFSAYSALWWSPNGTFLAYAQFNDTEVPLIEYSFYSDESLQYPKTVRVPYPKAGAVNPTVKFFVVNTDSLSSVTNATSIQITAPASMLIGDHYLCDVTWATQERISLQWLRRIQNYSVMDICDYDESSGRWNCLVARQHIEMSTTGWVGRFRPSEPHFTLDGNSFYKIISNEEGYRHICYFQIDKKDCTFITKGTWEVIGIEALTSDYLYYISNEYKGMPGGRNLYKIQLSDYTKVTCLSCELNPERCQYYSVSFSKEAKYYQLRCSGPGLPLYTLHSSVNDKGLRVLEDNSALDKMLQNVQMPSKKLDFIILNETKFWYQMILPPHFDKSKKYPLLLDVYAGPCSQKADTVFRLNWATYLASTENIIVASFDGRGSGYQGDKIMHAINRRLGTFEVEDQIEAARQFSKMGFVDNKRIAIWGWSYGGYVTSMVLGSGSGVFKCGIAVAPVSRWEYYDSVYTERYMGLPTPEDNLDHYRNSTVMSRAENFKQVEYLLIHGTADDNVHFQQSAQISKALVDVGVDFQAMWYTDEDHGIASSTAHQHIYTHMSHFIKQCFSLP", "details": "cited from earlier work"}, "[3]": {"tested_on": "mice on a fat-diet, or lean mice", "details": "cited from earlier work; for absolute body weight or cumulative food intake: chronic administration, compared with vehicle control"}}, "note": "“Also recorded” adds a separate entry of the source. *1 amine or outer side, *2 acyl side, *3 side chain or, on linkers, in order; H or OH if unused. Where a SMILES comes first, the peptide text is derived from it. Where no end group is shown, it is not given here. Side-chain parts run from the residue outwards. [ ]: non-standard residue; d: D form. The star is where a group is joined. C18 diacid = O=C(O)CCCCCCCCCCCCCCCCC(=O)*; C16 diacid = O=C(O)CCCCCCCCCCCCCCC(=O)*; γGlu = O=C(O)[C@H](CCC(=O)[*:2])N[*:1]; Glutaryl = O=C(CCCC(=O)[*:2])[*:1]; Nle = CCCC[C@H](N)C(=O)O; AEEA = NCCOCCOCC(=O)O; Aib = CC(C)(N)C(=O)O", "data": [{"compound": "CCCC[C@H](NC(=O)C(C)(C)NC(=O)[C@@H](NC(=O)[C@H](CO)NC(=O)[C@H](Cc1ccc(O)cc1)NC(=O)[C@H](CCC(=O)O)NC(=O)[C@H](CO)NC(=O)[C@@H](NC(=O)[C@H](Cc1ccccc1)NC(=O)[C@@H](NC(=O)CNC(=O)CCCC(=O)O)[C@@H](C)O)[C@@H](C)CC)[C@@H](C)CC)C(=O)N[C@@H](CCC(=O)O)C(=O)N[C@@H](CCCCN)C(=O)N[C@H](C(=O)N[C@@H](CCCCNC(=O)COCCOCCNC(=O)COCCOCCNC(=O)CC[C@H](NC(=O)CCCCCCCCCCCCCCCCC(=O)O)C(=O)O)C(=O)N[C@@H](CCC(N)=O)C(=O)N[C@@H](CCC(N)=O)C(=O)N[C@@H](CCC(=O)O)C(=O)N[C@@H](Cc1ccccc1)C(=O)N[C@H](C(=O)N[C@@H](CCC(=O)O)C(=O)N[C@@H](Cc1c[nH]c2ccccc12)C(=O)N[C@@H](CC(C)C)C(=O)N[C@@H](CC(C)C)C(=O)N[C@@H](C)C(=O)N[C@@H](CCC(N)=O)C(=O)N[C@@H](CCCCN)C(=O)N1CCC[C@H]1C(=O)N[C@@H](CO)C(=O)N[C@@H](CO)C(=O)NCC(=O)N[C@@H](C)C(=O)N1CCC[C@H]1C(=O)N1CCC[C@H]1C(=O)N1CCC[C@H]1C(=O)N[C@@H](CO)C(=O)O)C(C)C)[C@@H](C)CC", "note": "[Compound 2] (Glutaryl-GTFISEYSI[Aib][Nle]EKIK([AEEA-AEEA-γGlu-C18 diacid])QQEFVEWLLAQKPSSGAPPPS-OH)", "values": [{"measurement": "half life (in words)", "setting": "[1]", "value": "long half live"}]}, {"compound": "(Pro3)GIP", "values": [{"measurement": "glucose tolerance", "setting": "high-fat mice", "value": "significantly improved glucose tolerance"}, {"measurement": "glycaemic control", "setting": "high-fat mice", "value": "restored glycaemic control to normal levels"}, {"measurement": "food intake and body weights", "setting": "high-fat mice", "value": "not affected"}]}, {"compound": "(d-Ala8)GLP-1", "values": [{"measurement": "glucose tolerance", "setting": "high-fat mice", "value": "significantly improved glucose tolerance"}, {"measurement": "glycaemic control", "setting": "high-fat mice", "value": "restored glycaemic control to normal levels"}, {"measurement": "food intake and body weights", "setting": "high-fat mice", "value": "not affected"}]}, {"compound": "EGTFISEYSIAibLEKIKQQEFVEWLLAQKPSSGAPPPS-C16-diacid/18K (GIP(3-30)+Cex(31-39) [D9E;A13Aib;M14L;D15E;H18K;D21E;N24E]) (EGTFISEYSI[Aib]LEKIK(C16 diacid)QQEFVEWLLAQKPSSGAPPPS; ends and bridges not checked) [Compound 1]", "values": [{"measurement": "body weight during the study period (in words)", "setting": "[2]; 42 days treatment, placebo gained 9%", "value": "maintained body weight; also recorded: no change in weight"}, {"measurement": "fasting triglycerides (in words)", "setting": "[2]; FIG. 1D", "value": "reduced fasting triglycerides"}, {"measurement": "average HOMA-IR (Homeostatic Model Assessment for Insulin Resistance)", "setting": "[2]; at day 43, FIG. 1C, placebo 25.1", "value": 13.0}, {"measurement": "reduction in LDL-c (individual %-change from predose)", "setting": "[2]; from predose", "value": 26, "unit": "%"}]}, {"compound": "GLP-1: 31-amino acid peptide derived from the proglucagon gene, secreted by intestinal L-cells", "values": [{"measurement": "half-life", "setting": "DPP-IV enzyme", "value": "approximately 2 minutes"}]}, {"compound": "NaAc-K10[γEγE-C16]-Arg18-hGIP(5-42) [GIPA-2]", "values": [{"measurement": "absolute body weight or cumulative food intake", "setting": "[3]", "value": "no effect"}, {"measurement": "GIPR antagonist potency in mice (comparison)", "setting": "[3]; in mice", "value": "more potent antagonist than GIPA-1"}, {"measurement": "glucose stimulated insulin secretion", "setting": "[3]; in mice", "value": "inhibited glucose stimulated insulin secretion"}]}, {"compound": "mouse GIP(3-30)NH2 (EGTFISDYSIAMDKIRQQDFVNWLLAQR-NH2; UniProt P48756 46-73, looked up, fragment) [GIPA-1, GIPR antagonist GIP peptide of West et al. 2021]", "values": [{"measurement": "absolute body weight or cumulative food intake", "setting": "[3]", "value": "no effect"}]}]}
